According to patent US20120269913A1, “CRUDE CAFFEINE COMPLEX, IMPROVED FOOD PRODUCTS USING THE CRUDE CAFFEINE COMPLEX, AND METHODS OF USE THEREOF” (priority 2009, published 2012):
Read-outs that look alike come from different tables or passages of the source.

Key:
[1] = ORAC assay adapted for the linoleate microemulsion system, combination with α-tocopherol; settings: in combination with α-tocopherol; 100% = additive, >100% = synergistic
Description: Using an ORAC assay adapted for the linoleate microemulsion system (Sim, W. L. S. et al., Journal of Agricultural and Food Chemistry 57: 3409-3414 (2009)), we determined the antioxidant activity of α-tocopherol (a form of vitamin E) combined with crude caffeine, ascorbic acid, and chlorogenic acid. Data were expressed as relative ORAC: a relative ORAC of 100% means that the antioxidant activity of the mixture equaled the sum of each component's antioxidant activity (additive effect), whereas a relative ORAC greater than 100% means that the antioxidant activity of the mixture was greater than the sum of each component's antioxidant activity (synergistic effect).
In a 15-mL test tube, methyl linoleate (1.2 g), Tween-20 (2.9 g), n-butanol (1.5 g), and potassium phosphate buffer (4.4 g) were vortexed until the resulting solution was clear. […] A control well containing 200 μL of microemulsion and 40 μL of phosphate buffer was used to normalize the fluorescence reading. The reaction kinetics were monitored at 37° C. for 2 h, with readings every 2 min, by a Synergy HT microplate fluorescent reader (Biotek Instruments Inc.). The microplate reader was fitted with an excitation filter at 485 nm, an emission filter of 590 nm, and an oxygen sensor biosystem, and the plate was shaken for 20 s at low intensity before each reading to ensure sufficient mixing. […]

[2] = target: T1, COX-2 enzyme (Homo sapiens, UniProt P35354); assay: COX-2 inhibition (oxygen consumption); type: biochemical
T1 sequence (P35354 18-604): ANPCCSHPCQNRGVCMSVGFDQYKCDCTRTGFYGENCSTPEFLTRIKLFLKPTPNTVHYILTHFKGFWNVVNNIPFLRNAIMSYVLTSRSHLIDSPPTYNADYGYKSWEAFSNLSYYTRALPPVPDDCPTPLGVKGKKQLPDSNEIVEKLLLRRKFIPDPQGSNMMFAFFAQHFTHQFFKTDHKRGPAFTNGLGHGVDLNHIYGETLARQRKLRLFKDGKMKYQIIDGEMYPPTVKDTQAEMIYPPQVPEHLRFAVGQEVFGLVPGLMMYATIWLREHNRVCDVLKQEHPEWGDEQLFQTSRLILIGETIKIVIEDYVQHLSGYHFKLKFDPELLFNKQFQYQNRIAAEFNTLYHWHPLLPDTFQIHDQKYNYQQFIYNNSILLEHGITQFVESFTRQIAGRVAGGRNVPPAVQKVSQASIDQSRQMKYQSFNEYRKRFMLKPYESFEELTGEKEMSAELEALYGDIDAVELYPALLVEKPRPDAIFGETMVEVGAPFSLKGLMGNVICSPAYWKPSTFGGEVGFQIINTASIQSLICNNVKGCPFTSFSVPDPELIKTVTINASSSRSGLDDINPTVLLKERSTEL
Experimental: As discussed above, the ability to inhibit the COX-2 enzyme is understood as providing anti-inflammatory activities. […] IC50 indicates the effective dose needed to achieve about 50 percent inhibition of the COX-2 enzyme.
COX-2 inhibition. Oxygen consumption was measured in the reaction chamber of an Oxytherm (Hansatech Instrumental, Norfolk, England) at 37° C. The reaction mixture consisting of 0.5 mL Tris buffer (0.1 M, pH 8.0), 5 μL heme [100 μM in dimethyl sulfoxide (DMSO)], and 10 μL of COX-2 enzyme was incubated for 1 min. Five microliters of each sample (in DMSO or ethanol) was added and the mixture was incubated for an additional 1 min. The assay was initiated by adding 5 μL arachidonic acid, and the oxygen concentration was monitored. The initial oxygen consumption rate was obtained from the kinetic curve. COX-2 inhibition was expressed as the inhibitor concentration at which the initial oxygen consumption rate decreased by 50% (IC50).

[3] = system: human adipocytes; assay: Glucose uptake (3H-2-deoxyglucose) in human adipocytes; type: cell-based; settings: about 0.01 mg/mL, p<0.05
Experimental: (§1) The effect of the crude caffeine extract of Example 1 on glucose uptake in both human adipocytes (fat) and skeletal muscle cells (SMC) was tested (Zen Bio Research, Triangle Park, N.C.).
(§2) Data were analyzed by one-way ANOVA followed by Tukey's post hoc test for multiple comparisons. In FIG. 6, results are expressed as mean±SD. The asterisk * denotes P<0.05 compared with human skeletal muscle cells; the carrot top A denotes P<0.05 compared with untreated human adipocytes.
(§3) Glucose uptake. The in vitro effects of crude caffeine on glucose uptake were assessed with human adipocytes and skeletal muscle cells (Zen-Bio, Research Triangle Park, N.C.). Briefly, primary human subcutaneous adipocytes or primary human myoblasts were differentiated in 96-well microplates. […] All samples, including the positive and negative controls, were tested in triplicate. After a 2-h incubation at 37° C. and 5% CO2, the cells were washed with PBS and lysed. The cell lysate was mixed with scintillation fluid and radioactivity of each well was measured as counts per minute (CPM).

[4] = system: human skeletal muscle cells; assay: Glucose uptake (3H-2-deoxyglucose) in human skeletal muscle cells; type: cell-based; settings: about 0.01 mg/mL, p<0.05
Experimental: as §1, §2, §3

[5] = Oxygen radical absorbance capacity, hydrophilic fraction (ORAChydro); settings: crude caffeine complex of Example 1 vs pure caffeine
Experimental: Oxygen radical absorbance capacity. To determine antioxidant values of the hydrophilic fraction (ORAChydro), 5 g crude caffeine was extracted with 20 mL acetone/water (50:50 v/v) on an orbital shaker at room temperature for 1 h. The mixtures were centrifuged at 1972×g in a Rotanta 460R centrifuge (GMI, Ramsey, Minn.). […] The excitation wavelength was set at 485 (±20) nm and the emission wavelength set at 530 (±25) nm. To determine antioxidant values of the lipophilic fraction (ORAClipo), 5 g crude caffeine was extracted twice with 10 mL hexane/dichloromethane (50:50 v/v).

O=C1O[C@H]([C@@H](O)CO)C(O)=C1O [ascorbic acid]
relative ORAC [1]: 100%

O=C(/C=C/c1ccc(O)c(O)c1)O[C@@H]1C[C@](O)(C(=O)O)C[C@@H](O)[C@H]1O [chlorogenic acid]
relative ORAC [1]: 168%

Cn1c(=O)c2c(ncn2C)n(C)c1=O [pure caffeine, 1,3,7-trimethylxanthine]
COX-2 inhibitory activity (in words) [2]: no such inhibitory activity | COX-2 inhibitory activity (in words) ([2]; listed as Pure caffeine): did not inhibit COX-2 activity | increase in glucose uptake as compared to a control [3]: no such effect | increase in glucose uptake as compared to a control [4]: no such effect | ORAChydro [5]: 5 μmol TE/g
